28 molecules from ChEMBL document CHEMBL3400096, “6,7-Dihydrobenzo[f]benzo[4,5]imidazo[1,2-d][1,4]oxazepine derivatives as selective inhibitors of PI3Kα” (Bioorg Med Chem, 2015) can be followed below.

Experiment [1] in a line: Antiproliferative activity against human HuH7 cells assessed as inhibition of absorbance after 72 hrs by MTT assay. Format: functional, cell-based. Conditions: Huh-7, 72 h. (Tetrazolium dyes change colour on reduction, which living cells bring about.)
A short description of experiment [2]: Antiproliferative activity against human HL60 cells assessed as inhibition of absorbance after 72 hrs by MTT assay. Format: functional, cell-based. Conditions: HL-60, 72 h.
Experiment [3] concerns A549. Put plainly: Antiproliferative activity against human A549 cells assessed as inhibition of absorbance after 72 hrs by MTT assay. In kind it is functional, cell-based. Conditions: A549, 72 h.
Experiment [4] is described as follows: Antiproliferative activity against human HCT116 cells assessed as inhibition of absorbance after 72 hrs by MTT assay. Conditions: HCT-116, 72 h. Format: functional, cell-based.
Experiment [5] deals with Phosphatidylinositol 4,5-bisphosphate 3-kinase catalytic subunit gamma isoform (Homo sapiens, UniProt P48736). Put plainly: Inhibition of recombinant PI3Kgamma (unknown origin) using […] as substrate after 3 hrs incubation by competitive fluorescence polarization kinase activity assay.
Phosphatidylinositol 4,5-bisphosphate 3-kinase catalytic subunit gamma isoform, sequence (P48736 whole entry, canonical isoform): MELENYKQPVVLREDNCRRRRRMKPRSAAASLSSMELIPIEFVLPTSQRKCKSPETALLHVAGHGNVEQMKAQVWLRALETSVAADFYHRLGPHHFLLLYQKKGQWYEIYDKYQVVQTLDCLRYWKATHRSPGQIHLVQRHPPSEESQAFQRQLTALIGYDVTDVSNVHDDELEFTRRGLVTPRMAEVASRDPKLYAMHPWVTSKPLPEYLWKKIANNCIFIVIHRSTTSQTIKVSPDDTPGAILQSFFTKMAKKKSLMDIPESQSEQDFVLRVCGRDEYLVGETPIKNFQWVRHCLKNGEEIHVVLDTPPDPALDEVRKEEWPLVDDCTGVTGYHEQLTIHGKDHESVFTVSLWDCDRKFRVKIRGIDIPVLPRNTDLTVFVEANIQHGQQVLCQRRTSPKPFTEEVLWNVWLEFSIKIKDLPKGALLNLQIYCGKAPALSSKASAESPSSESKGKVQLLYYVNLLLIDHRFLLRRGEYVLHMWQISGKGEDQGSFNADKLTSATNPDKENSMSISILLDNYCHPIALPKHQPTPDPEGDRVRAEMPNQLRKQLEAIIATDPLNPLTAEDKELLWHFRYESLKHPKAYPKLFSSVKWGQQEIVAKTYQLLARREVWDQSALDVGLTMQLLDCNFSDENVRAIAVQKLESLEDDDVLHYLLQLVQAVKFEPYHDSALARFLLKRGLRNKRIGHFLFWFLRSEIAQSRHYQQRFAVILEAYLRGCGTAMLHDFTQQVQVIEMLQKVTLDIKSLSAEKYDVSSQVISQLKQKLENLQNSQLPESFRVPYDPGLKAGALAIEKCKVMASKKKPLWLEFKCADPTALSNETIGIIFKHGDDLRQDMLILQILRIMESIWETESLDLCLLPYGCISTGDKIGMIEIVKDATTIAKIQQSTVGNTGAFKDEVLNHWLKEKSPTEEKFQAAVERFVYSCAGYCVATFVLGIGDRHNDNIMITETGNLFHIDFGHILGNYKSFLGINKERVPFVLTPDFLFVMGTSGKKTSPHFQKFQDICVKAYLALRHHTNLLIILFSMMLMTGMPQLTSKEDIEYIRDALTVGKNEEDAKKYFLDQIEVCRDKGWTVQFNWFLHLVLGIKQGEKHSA
Experiment [6] addresses T1, Phosphatidylinositol 4,5-bisphosphate 3-kinase catalytic subunit delta isoform (Homo sapiens, UniProt O00329).
T1 sequence (O00329 whole entry): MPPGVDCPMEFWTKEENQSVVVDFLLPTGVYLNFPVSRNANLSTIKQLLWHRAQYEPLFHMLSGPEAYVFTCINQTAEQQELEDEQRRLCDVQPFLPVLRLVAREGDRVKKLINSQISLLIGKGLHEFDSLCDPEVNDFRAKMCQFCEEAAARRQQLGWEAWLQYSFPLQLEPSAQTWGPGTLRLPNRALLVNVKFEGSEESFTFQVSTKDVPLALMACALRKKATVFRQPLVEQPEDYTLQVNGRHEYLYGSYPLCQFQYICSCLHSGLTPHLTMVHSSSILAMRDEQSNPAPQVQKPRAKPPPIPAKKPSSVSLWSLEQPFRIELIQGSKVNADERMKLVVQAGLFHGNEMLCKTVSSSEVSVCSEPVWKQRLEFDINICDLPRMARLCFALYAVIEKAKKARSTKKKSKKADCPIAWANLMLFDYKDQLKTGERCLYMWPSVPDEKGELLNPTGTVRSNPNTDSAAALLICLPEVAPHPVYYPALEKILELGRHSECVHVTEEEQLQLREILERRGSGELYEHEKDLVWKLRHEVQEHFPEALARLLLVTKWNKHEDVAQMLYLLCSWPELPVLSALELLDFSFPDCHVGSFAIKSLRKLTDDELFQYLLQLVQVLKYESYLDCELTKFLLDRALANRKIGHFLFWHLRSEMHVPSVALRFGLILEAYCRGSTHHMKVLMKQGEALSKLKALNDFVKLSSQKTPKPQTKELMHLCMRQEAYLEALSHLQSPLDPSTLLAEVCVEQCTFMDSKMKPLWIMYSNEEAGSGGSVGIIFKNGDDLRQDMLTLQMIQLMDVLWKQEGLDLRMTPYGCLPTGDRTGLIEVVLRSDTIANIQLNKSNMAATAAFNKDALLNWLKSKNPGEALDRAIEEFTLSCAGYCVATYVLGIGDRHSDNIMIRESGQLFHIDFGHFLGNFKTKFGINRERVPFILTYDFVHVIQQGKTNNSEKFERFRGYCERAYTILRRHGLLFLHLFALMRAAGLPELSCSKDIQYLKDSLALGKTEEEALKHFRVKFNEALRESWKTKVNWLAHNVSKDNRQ
Briefly: Inhibition of recombinant PI3Kdelta (unknown origin) using […] as substrate after 3 hrs incubation by competitive fluorescence polarization kinase activity assay. (In fluorescence polarisation assays a small probe gives low polarisation when free and higher when bound to something large.)

The target of experiment [7] is Phosphatidylinositol 4,5-bisphosphate 3-kinase catalytic subunit beta isoform (Homo sapiens, UniProt P42338). Briefly: Inhibition of recombinant PI3Kbeta (unknown origin) […] after 3 hrs incubation by competitive fluorescence polarization kinase activity assay.
Phosphatidylinositol 4,5-bisphosphate 3-kinase catalytic subunit beta isoform, sequence (P42338 whole entry, canonical isoform): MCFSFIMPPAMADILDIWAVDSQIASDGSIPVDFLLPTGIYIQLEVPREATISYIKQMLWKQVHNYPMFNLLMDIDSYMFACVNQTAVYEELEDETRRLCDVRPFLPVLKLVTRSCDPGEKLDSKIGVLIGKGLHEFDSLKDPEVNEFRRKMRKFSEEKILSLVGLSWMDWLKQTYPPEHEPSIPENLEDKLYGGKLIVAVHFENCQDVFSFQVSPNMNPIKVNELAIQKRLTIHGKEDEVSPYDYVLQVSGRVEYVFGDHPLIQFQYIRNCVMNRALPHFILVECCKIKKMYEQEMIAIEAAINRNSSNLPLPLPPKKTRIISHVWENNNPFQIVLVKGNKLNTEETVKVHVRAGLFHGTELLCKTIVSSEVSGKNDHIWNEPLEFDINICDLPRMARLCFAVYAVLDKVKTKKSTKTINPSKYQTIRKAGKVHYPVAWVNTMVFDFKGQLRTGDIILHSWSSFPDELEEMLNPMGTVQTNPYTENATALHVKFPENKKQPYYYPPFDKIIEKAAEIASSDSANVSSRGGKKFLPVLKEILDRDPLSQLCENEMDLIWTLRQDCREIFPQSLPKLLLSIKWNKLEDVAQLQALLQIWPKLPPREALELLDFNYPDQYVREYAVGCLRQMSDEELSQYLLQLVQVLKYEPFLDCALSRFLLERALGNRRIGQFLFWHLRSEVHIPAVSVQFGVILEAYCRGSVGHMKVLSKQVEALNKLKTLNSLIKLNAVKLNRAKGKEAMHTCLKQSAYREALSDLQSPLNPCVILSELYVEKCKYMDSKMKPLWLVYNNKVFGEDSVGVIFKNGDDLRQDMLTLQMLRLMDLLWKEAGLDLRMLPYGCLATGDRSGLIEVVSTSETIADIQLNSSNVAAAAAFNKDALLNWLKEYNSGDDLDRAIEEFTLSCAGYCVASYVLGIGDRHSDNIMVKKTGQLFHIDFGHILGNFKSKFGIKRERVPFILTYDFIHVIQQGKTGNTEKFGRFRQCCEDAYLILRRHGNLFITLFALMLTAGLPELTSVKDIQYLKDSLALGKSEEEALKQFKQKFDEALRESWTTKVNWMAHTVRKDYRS
Experiment [8] has as its target Phosphatidylinositol 4,5-bisphosphate 3-kinase catalytic subunit alpha isoform (Homo sapiens, UniProt P42336). Put plainly: Inhibition of recombinant PI3Kalpha (unknown origin) using […] as substrate after 3 hrs incubation by competitive fluorescence polarization kinase activity assay.

Phosphatidylinositol 4,5-bisphosphate 3-kinase catalytic subunit alpha isoform, sequence (P42336 whole entry, canonical isoform): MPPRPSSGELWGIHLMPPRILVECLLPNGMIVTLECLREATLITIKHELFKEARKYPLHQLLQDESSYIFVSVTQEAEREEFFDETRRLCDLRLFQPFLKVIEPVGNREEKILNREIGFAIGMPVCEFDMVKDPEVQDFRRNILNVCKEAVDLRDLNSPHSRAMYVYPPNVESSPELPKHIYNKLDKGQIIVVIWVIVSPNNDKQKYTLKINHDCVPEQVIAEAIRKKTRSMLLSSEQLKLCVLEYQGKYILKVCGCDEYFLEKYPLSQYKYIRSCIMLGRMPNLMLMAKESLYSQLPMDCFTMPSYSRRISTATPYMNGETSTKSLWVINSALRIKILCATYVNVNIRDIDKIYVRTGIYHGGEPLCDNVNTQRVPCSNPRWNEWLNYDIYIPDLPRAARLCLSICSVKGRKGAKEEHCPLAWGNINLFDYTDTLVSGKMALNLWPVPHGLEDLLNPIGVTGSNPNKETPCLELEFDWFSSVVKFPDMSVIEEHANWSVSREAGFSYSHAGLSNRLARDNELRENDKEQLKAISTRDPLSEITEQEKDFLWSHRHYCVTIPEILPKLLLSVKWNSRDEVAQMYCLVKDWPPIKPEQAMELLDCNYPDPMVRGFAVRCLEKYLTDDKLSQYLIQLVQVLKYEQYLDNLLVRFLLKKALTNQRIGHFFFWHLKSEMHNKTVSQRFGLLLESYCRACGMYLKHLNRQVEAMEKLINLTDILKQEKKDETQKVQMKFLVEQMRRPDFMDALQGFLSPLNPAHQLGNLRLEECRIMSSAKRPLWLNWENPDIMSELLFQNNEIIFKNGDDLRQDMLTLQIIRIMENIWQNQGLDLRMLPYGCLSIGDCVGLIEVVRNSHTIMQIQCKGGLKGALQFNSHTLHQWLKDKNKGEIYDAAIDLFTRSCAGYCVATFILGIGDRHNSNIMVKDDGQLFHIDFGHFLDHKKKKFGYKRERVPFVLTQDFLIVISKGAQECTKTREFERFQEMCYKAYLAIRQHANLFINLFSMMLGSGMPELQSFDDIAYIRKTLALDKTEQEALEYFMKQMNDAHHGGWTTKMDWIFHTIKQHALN

As for `FC(F)(F)c1ccc2c(c1)nc1n2CCOc2ccc(Br)cc2-1`, the IC50 in experiment [1] stood at 69.7 µM; in experiment [2], 66.4 µM; in experiment [3], 68.5 µM; in experiment [4], 60.6 µM.
The matching figures for `Brc1ccc2c(c1)nc1n2CCOc2ccccc2-1`: 58.5 µM, 44.3 µM, 49.5 µM and 43.9 µM.
Consider `Clc1ccc2c(c1)-c1nc3cc(Cl)ccc3n1CCO2`, for which the IC50 in experiment [5] is 24.3 µM; in experiment [1], 0.45 µM; in experiment [6], > 50 µM; in experiment [7], 0.363 µM; in experiment [8], 0.127 µM; in experiment [2] it was 0.53 µM. Moreover, the figures for the IC50 in experiment [3] and in experiment [4] were 0.56 µM and 0.52 µM, respectively.
As to `FC(F)(F)c1ccc2c(c1)nc1n2CCOc2ccccc2-1`, the IC50 in experiment [1] amounted to 18.7 µM; in experiment [2], 10.1 µM; in experiment [3], 11.5 µM; in experiment [4], 13.8 µM.
With `Cc1ccc2c(c1)-c1nc3cc(F)ccc3n1CCO2`, the IC50 in experiment [5] is 34.6 µM; in experiment [1], 3.86 µM; in experiment [6], > 50 µM; in experiment [7] it was 0.907 µM; in experiment [8] it was 0.474 µM; in experiment [2] it was 4.56 µM. The IC50 in experiment [3] was found to be 2.85 µM; in experiment [4] it was 2.46 µM.
In the case of `Clc1ccc2c(c1)nc1n2CCOc2ccccc2-1`, the IC50 in experiment [1] came to 80.3 µM; in experiment [2], 73.8 µM; in experiment [3] it was 77.3 µM; in experiment [4] it was 71.5 µM.
The matching figures for `Fc1ccc2c(c1)nc1n2CCOc2ccccc2-1`: 91.9 µM, 82.5 µM, 89.4 µM and 76.5 µM.
As for `Fc1ccc2c(c1)nc1n2CCOc2ccc(Cl)cc2-1`, the IC50 in experiment [5] worked out at 21.7 µM; in experiment [1], 1.35 µM; in experiment [6], 42.6 µM; in experiment [7] it was 0.488 µM; in experiment [8], 0.283 µM; in experiment [2] it was 1.89 µM. Further, the IC50 in experiment [3] is 1.71 µM; in experiment [4] it was 1.83 µM.
As for `Cc1ccc2c(c1)-c1nc3cc(C)ccc3n1CCO2`, the IC50 in experiment [5] was 17.1 µM; in experiment [1], 0.67 µM; in experiment [6], > 50 µM; in experiment [7], 0.394 µM; in experiment [8], 0.118 µM; in experiment [2], 0.58 µM. Moreover, the IC50 in experiment [3] is 0.61 µM; in experiment [4], 0.59 µM.
`Clc1ccc2c(c1)nc1n2CCOc2ccc(Br)cc2-1`: the IC50 in experiment [5] was 11.8 µM; in experiment [1], 0.18 µM; in experiment [6], > 50 µM; in experiment [7] it was 0.188 µM; in experiment [8], 0.031 µM; in experiment [2] it was 0.15 µM. Besides, the IC50 in experiment [3] is 0.17 µM; in experiment [4] it was 0.12 µM.
With `Cc1ccc2c(c1)-c1nc3cc(Cl)ccc3n1CCO2`, the IC50 in experiment [1] was determined as 64.5 µM; in experiment [2], 51.6 µM; in experiment [3], 55.6 µM; in experiment [4] it was 46.4 µM.
The matching figures for `O=[N+]([O-])c1ccc2c(c1)nc1n2CCOc2ccc(Cl)cc2-1`: 20.1 µM, 32.9 µM, 28.3 µM and 28.4 µM.
The matching figures for `FC(F)(F)c1ccc2c(c1)nc1n2CCOc2ccc(Cl)cc2-1`: 42.3 µM, 38 µM, 38.3 µM and 34.7 µM.
Consider `O=c1cc(N2CCOCC2)oc2c(-c3ccccc3)cccc12` [LY-294002], for which the half-maximal inhibitory concentration (IC50) in experiment [1] was determined as 67.2 µM; in experiment [6], 1.36 µM; in experiment [3] it was 82.3 µM; in experiment [4], 51.8 µM.
As for `Cc1ccc2c(c1)nc1n2CCOc2ccccc2-1`, the IC50 in experiment [1] turned out to be 82.6 µM; in experiment [2] it was 75.2 µM; in experiment [3], 83.7 µM; in experiment [4], 73.5 µM.
On the same counts, the results for `O=[N+]([O-])c1ccc2c(c1)nc1n2CCOc2ccc(Br)cc2-1` are 24.3 µM, 17.5 µM, 22 µM and 19 µM.
The matching figures for `Clc1ccc2c(c1)-c1nc3ccccc3n1CCO2`: 92.5 µM, 91.3 µM, 108 µM and 87.7 µM.
The matching figures for `Clc1ccc2c(c1)-c1nc3cc(Br)ccc3n1CCO2`: 72.1 µM, 66.7 µM, 74.1 µM and 64.4 µM.
Regarding `Cc1ccc2c(c1)nc1n2CCOc2ccc(Br)cc2-1`, the IC50 in experiment [1] came out at 97.4 µM; in experiment [2], 88.6 µM; in experiment [3] it was 92.8 µM; in experiment [4], 80.1 µM.
On the same counts, the results for `Cc1ccc2c(c1)nc1n2CCOc2ccc(Cl)cc2-1` are 63.4 µM, 57.4 µM, 61.6 µM and 58.2 µM.
Regarding `Cc1ccc2c(c1)-c1nc3cc(Br)ccc3n1CCO2`, the IC50 in experiment [5] came out at 44.1 µM; in experiment [1], 4.91 µM; in experiment [6] it was 47.8 µM; in experiment [7], 1.03 µM; in experiment [8] it was 0.662 µM; in experiment [2], 7.68 µM. In addition, the IC50 in experiment [3] came out at 7.88 µM; in experiment [4], 7.38 µM.
On to `Brc1ccc2c(c1)-c1nc3ccccc3n1CCO2`, for which the IC50 in experiment [1] was 132 µM; in experiment [2] it was 103 µM; in experiment [3] it was 128 µM; in experiment [4], 98.5 µM.
On to `Cc1ccc2c(c1)-c1nc3cc(C(F)(F)F)ccc3n1CCO2`, for which the IC50 in experiment [5] is 41.6 µM; in experiment [1], 6.47 µM; in experiment [6] it was > 50 µM; in experiment [7] it was 1.21 µM; in experiment [8], 0.685 µM; in experiment [2], 4.86 µM. Besides, the figures for the IC50 in experiment [3] and in experiment [4] were 4.95 µM and 4.45 µM, respectively.
In the case of `Brc1ccc2c(c1)-c1nc3cc(Br)ccc3n1CCO2`, the IC50 was 19.5 µM in experiment [5]; 0.51 µM in experiment [1]; 39.8 µM in experiment [6]; 0.284 µM in experiment [7]; 0.092 µM in experiment [8]; 0.47 µM in experiment [2]. For the same molecule, the IC50 was determined as 0.48 µM in experiment [3] and 0.47 µM in experiment [4].
For `Cc1ccc2c(c1)-c1nc3ccccc3n1CCO2`, the IC50 amounted to 144 µM in experiment [1], 122 µM in experiment [2], 148 µM in experiment [3] and 112 µM in experiment [4].
For `c1ccc2c(c1)OCCn1c-2nc2ccccc21`, the IC50 in experiment [1] worked out at 124 µM; in experiment [2], 108 µM; in experiment [3] it was 133 µM; in experiment [4], 101 µM.
On the same counts, the results for `O=[N+]([O-])c1ccc2c(c1)nc1n2CCOc2ccccc2-1` are 105 µM, 94.5 µM, 122 µM and 91 µM.
Take `Fc1ccc2c(c1)nc1n2CCOc2ccc(Br)cc2-1`: the IC50 is 27.9 µM in experiment [5]; 0.74 µM in experiment [1]; > 50 µM in experiment [6]; 0.473 µM in experiment [7]; 0.181 µM in experiment [8]; 0.78 µM in experiment [2]. Besides, the values for the IC50 in experiment [3] and in experiment [4] were 0.7 µM and 0.74 µM, respectively.

The IC50 is the concentration needed to halve the response being measured.
